PMC6999911, “New 2-Ethylthio-4-methylaminoquinazoline derivatives inhibiting two subunits of cytochrome bc1 in Mycobacterium tuberculosis” (PLoS Pathogens, 2020)
Converted amounts (≈) assume the structure as drawn. Read-outs that look alike come from different tables or passages of the source.

What was measured:
[1] = system: Mycobacterium avium ATCC15769; assay: MIC, different organisms; type: cell-based
[2] = system: Corynebacterium diphtheriae; assay: MIC, different organisms; type: cell-based
[3] = system: Mycobacteroides abscessus subsp. abscessus 2005–0524; assay: MIC, different organisms; type: cell-based
[4] = system: Mycobacterium smegmatis mc^2155; assay: MIC, different organisms; type: cell-based; details: Mycolicibacterium smegmatis
[5] = system: Mycobacteroides abscessus subsp. massiliense 2005–0484; assay: MIC, different organisms; type: cell-based
[6] = system: Mycobacterium bovis BCG Pasteur; assay: microbe, parasite or virus in culture; type: cell-based; details: Mycobacterium tuberculosis variant bovis BCG
Salmonella typhimurium = assay: MIC, different organisms; type: cell-based; details: Salmonella enterica
in vitro = details: human, microsomes
[7] = system: Mycobacterium marinum Strain M; assay: MIC, different organisms; type: cell-based
[8] = system: Mycolicibacterium vaccae ATCC 15483; assay: MIC, different organisms; type: cell-based; details: ATCC15483
Bacillus subtilis = assay: MIC, different organisms; type: cell-based
Candida albicans = assay: MIC, different organisms; type: cell-based
Micrococcus luteus = assay: MIC, different organisms; type: cell-based
Staphylococcus aureus = assay: MIC, different organisms; type: cell-based
[9] = system: Mycobacterium tuberculosis MDR 59744; assay: MIC, different organisms; type: cell-based
HepG2 cells = type: cell-based, Human; details: for Selective index TD50/MIC: HepG2 TD50 / H37Rv MIC; for HepG2 TD99: Toxic dose that inhibits 99% of cell growth, 3 days
Experimental: Human HepG2 cells (ATCC HB-8065, 4000 cells/well) were incubated for 3 days with two-fold serially diluted compounds at 37°C, under an atmosphere of 5% CO2. Cell viability was determined by the addition of resazurin (0.0025% w/v) for 5 h at 37°C and the fluorescence intensity measured as in REMA.

[10] = microsomes
Pseudomonas aeruginosa = assay: MIC, different organisms; type: cell-based
[11] = system: Mycobacterium canettii STB-L; assay: MIC, different organisms; type: cell-based; details: Mycobacterium canetti
[12] = system: Corynebacterium glutamicum ATCC13032; assay: MIC, different organisms; type: cell-based
[13] = system: Mycobacterium tuberculosis Erdman; assay: MIC, different organisms; type: cell-based
Pseudomonas putida = assay: MIC, different organisms; type: cell-based
[14] = system: THP-1 macrophages infected with M.tb H37Rv; assay: Ex vivo drug susceptibility in infected THP-1 macrophages; type: cell-based; details: Mycobacterium tuberculosis; THP-1 macrophages infected with H37Rv, 48h
[15] = system: Mycobacteroides abscessus subsp. bolletii 1999–0888; assay: MIC, different organisms; type: cell-based
Listeria monocytogenes = assay: MIC, different organisms; type: cell-based
Enterococcus faecalis = assay: MIC, different organisms; type: cell-based
[16] = system: non-replicating, streptomycin-starved strain 18b; assay: Activity against non-replicating strain 18b (model for latent TB); type: cell-based, Mycobacterium tuberculosis; details: streptomycin-starved 18b
Escherichia coli PQ37 = assay: MIC, different organisms; type: cell-based
[17] = system: Mycobacterium tuberculosis HN878; assay: MIC, different organisms; type: cell-based
M. tb H37Rv [18] = type: cell-based; details: 11626252 8.4 μM (100x the MIC50)
M. tb H37Rv ΔcydAB [19] = type: cell-based; details: ΔcydAB strain of M. tb H37Rv, even after CCCP
H37Rv = type: cell-based, Mycobacterium tuberculosis; details: 2.5X MIC, 24 h, compared to untreated controls
M. tb H37Rv [20] = type: cell-based; details: 1X - 32X MIC, 7 days
M. tb H37Rv ΔcydAB [21] = type: cell-based; details: 8X MIC, 32X MIC, 7 days, d.l. = limit of detection
[22] = system: cydB and lipU in M. tb H37Rv; type: cell-based, Mycobacterium tuberculosis; details: M. tb H37Rv exposed to 11626252, 4 h
M. tb H37Rv South Africa = assay: Acute model of murine TB; type: in vivo, Mycobacterium tuberculosis; details: Balb/c mice
[23] = Mycobacterium canettii STB-L, read-out: MIC

SMILES | MIC [1] [µg/mL] | MIC [2] [µg/mL] | MIC [3] [µg/mL] | MIC [4] [µg/mL] | MIC [5] [µg/mL] | MIC [6] [µg/mL] | MIC (Salmonella typhimurium) [µg/mL] | microsomal CLint (in vitro) [µL/min/mg] | MIC [7] [µg/mL] | MIC [8] [µg/mL] | MIC (Bacillus subtilis) [µg/mL] | MIC (Candida albicans) [µg/mL] | MIC (Micrococcus luteus) [µg/mL] | MIC (Staphylococcus aureus) [µg/mL] | Selective index TD50/MIC (HepG2 cells) | HepG2 TD99 (HepG2 cells) [µg/mL] | Human microsome stability, clearance class [10] | MIC (Pseudomonas aeruginosa) [µg/mL] | MIC [12] [µg/mL] | MIC [13] [µg/mL] | further results
CNc1nc(SCc2ccccc2)nc2cccc(F)c12 | – | – | – | – | – | – | – | – | – | – | – | – | – | – | – | – | – | – | – | – | melting point: 101 to 104 °C
CCSc1nc(NC)c2cc(C(F)(F)F)ccc2n1 | – | – | – | – | – | – | – | – | – | – | – | – | – | – | – | – | – | – | – | – | melting point: 161 to 163 °C
CCSc1nc(NC)c2ccccc2n1 [Compound 11626141] | ≥ 100 | ≥ 100 | 62.4 (≈ 285 µM) | 38.4 (≈ 175 µM) | ≥ 100 | 0.9 (≈ 4.1 µM) | ≥ 100 | 120 | 0.1 (≈ 0.456 µM) | ≥ 100 | ≥ 100 | ≥ 100 | ≥ 100 | ≥ 100 | 575 | 53 | high | ≥ 100 | 66.8 (≈ 305 µM) | 0.01 (≈ 0.0456 µM) | MIC ([9]; MDR59744, read-out: MIC): 0.02 µg/mL (≈ 0.0912 µM); MIC [11, 23]: 0.05 µg/mL (≈ 0.228 µM); MIC (Pseudomonas putida): ≥ 100 µg/mL; IC50 [14]: 0.013 µg/mL (≈ 0.0593 µM); MIC [15]: ≥ 100 µg/mL; MIC (Listeria monocytogenes): ≥ 100 µg/mL; MIC (Enterococcus faecalis): ≥ 100 µg/mL; Activity against non-replicating strain 18b [16]: no activity; MIC (Escherichia coli PQ37): ≥ 100 µg/mL; MIC [17]: 0.05 µg/mL (≈ 0.228 µM)
CCNc1nc(SCC)nc2ccccc12 [Compound 11626142] | 49.1 (≈ 210 µM) | 44.3 (≈ 190 µM) | 100 (≈ 429 µM) | 75.6 (≈ 324 µM) | ≥ 100 | 0.8 (≈ 3.43 µM) | ≥ 100 | 122 | 0.8 (≈ 3.43 µM) | ≥ 100 | ≥ 100 | 44.3 (≈ 190 µM) | ≥ 100 | ≥ 100 | 100 | 26 | high | ≥ 100 | 75 (≈ 321 µM) | 0.1 (≈ 0.429 µM) | MIC ([9]; MDR59744, read-out: MIC): 0.09 µg/mL (≈ 0.386 µM); MIC [11, 23]: 0.2 µg/mL (≈ 0.857 µM); MIC (Pseudomonas putida): ≥ 100 µg/mL; IC50 [14]: 0.012 µg/mL (≈ 0.0514 µM); MIC [15]: ≥ 100 µg/mL; MIC (Listeria monocytogenes): ≥ 100 µg/mL; MIC (Enterococcus faecalis): ≥ 100 µg/mL; Activity against non-replicating strain 18b [16]: no activity; MIC (Escherichia coli PQ37): ≥ 100 µg/mL; MIC [17]: 0.2 µg/mL (≈ 0.857 µM)
CCSc1nc(NC)c2cccc(F)c2n1 [Compound 11626252] | ≥ 100 | ≥ 100 | ≥ 100 | 32.3 (≈ 136 µM) | ≥ 100 | 1.6 (≈ 6.74 µM) | ≥ 100 | 18.1 | 0.007 (≈ 0.0295 µM) | ≥ 100 | ≥ 100 | ≥ 100 | ≥ 100 | ≥ 100 | 1950 | > 100 | medium | ≥ 100 | 47.2 (≈ 199 µM) | 0.02 (≈ 0.0843 µM) | oxygen consumption rate (OCR) after exposure (M. tb H37Rv [18]): increased; oxygen consumption rate (OCR) after exposure (M. tb H37Rv ΔcydAB [19]): rapid and sustained decrease; remaining relative ATP level (H37Rv): 19.81±8.125%; static or cidal activity by CFU enumeration (M. tb H37Rv [20]): bacteriostatic; log10 CFU/mL (M. tb H37Rv ΔcydAB [21]): < d.l.; MIC ([9]; MDR59744, read-out: MIC): 0.02 µg/mL (≈ 0.0843 µM); expression of cydB and lipU (qRT-PCR) [22]: Overexpression; MIC [11, 23]: 0.03 µg/mL (≈ 0.126 µM); MIC (Pseudomonas putida): ≥ 100 µg/mL; IC50 [14]: 0.011 µg/mL (≈ 0.0464 µM); MIC [15]: ≥ 100 µg/mL; MIC (Listeria monocytogenes): ≥ 100 µg/mL; MIC (Enterococcus faecalis): ≥ 100 µg/mL; Activity against non-replicating strain 18b [16]: no activity; MIC (Escherichia coli PQ37): ≥ 100 µg/mL; MIC [17]: 0.03 µg/mL (≈ 0.126 µM)
CCSc1nc(NC)c2ccc(F)c(F)c2n1 [Compound 11726148] | – | – | – | – | – | – | – | 28.7 | – | – | – | – | – | – | 780 | > 100 | medium | – | – | – | decrease of bacterial burden in the lungs (M. tb H37Rv South Africa; 150 mg/kg gavage daily for 10 days, vs untreated TPGS control, p-value 0.004): 0.51 log10 CFU/organ; melting point: 186 to 189 °C
NNC(=O)c1ccncc1 [INH, isoniazid, reference compound] | – | – | – | – | – | – | – | – | – | – | – | – | – | – | – | – | – | – | – | – | log10 CFU per lung (M. tb H37Rv South Africa; INH 25mg/kg gavage, 10 days, d.l. = limit of detection): < d.l.
CO[C@H]1/C=C/O[C@@]2(C)Oc3c(C)c(O)c4c(O)c(c(/C=N/N5CCN(C)CC5)c(O)c4c3C2=O)NC(=O)/C(C)=C\C=C\[C@H](C)[C@H](O)[C@@H](C)[C@@H](O)[C@@H](C)[C@H](OC(C)=O)[C@@H]1C [RIF, rifampicin, reference compound] | 27.3 (≈ 33.2 µM) | 0.5 (≈ 0.608 µM) | 18.1 (≈ 22 µM) | 0.9 (≈ 1.09 µM) | 9.5 (≈ 11.5 µM) | 0.0008 (≈ 0.000972 µM) | 0.8 (≈ 0.972 µM) | – | 0.2 (≈ 0.243 µM) | 6.6 (≈ 8.02 µM) | 0.3 (≈ 0.365 µM) | 2.2 (≈ 2.67 µM) | 0.2 (≈ 0.243 µM) | 1.4 (≈ 1.7 µM) | – | – | – | 0.2 (≈ 0.243 µM) | 0.004 (≈ 0.00486 µM) | 0.001 (≈ 0.00122 µM) | MIC ([9]; MDR59744): ≥ 10 µg/mL; MIC [11]: 0.001 µg/mL (≈ 0.00122 µM); MIC (Pseudomonas putida): 3 µg/mL (≈ 3.65 µM); MIC [15]: 24.8 µg/mL (≈ 30.1 µM); MIC (Listeria monocytogenes): 0.6 µg/mL (≈ 0.729 µM); MIC (Enterococcus faecalis): 3.9 µg/mL (≈ 4.74 µM); MIC (Escherichia coli PQ37): 6.5 µg/mL (≈ 7.9 µM); MIC [17]: 0.0006 µg/mL (≈ 0.000729 µM)
